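Briefly, cells in 96-well plates were exposed to five compound concentrations for 48 h, and endpoints were estimated by linear interpolation. At the GI50, growth is halved.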 Calls of active or inactive are those of the source. Rule as the data show it: active = GI50 up to about 1.1 µM and inactive = higher.
Assays:
Test in all cases: growth of human tumour cells (NCI), 48 h
HL-60 = test system: HL-60
SW-620 = test system: SW-620
IGROV-1 = test system: IGROV-1
Malme-3M = test system: Malme-3M
OVCAR-3 = test system: OVCAR-3
RPMI-8226 = test system: RPMI-8226
SK-OV-3 = test system: SK-OV-3
NCI-H23 = test system: NCI-H23
SK-MEL-2 = test system: SK-MEL-2
U-251 = test system: U-251
SR = test system: SR
SK-MEL-28 = test system: SK-MEL-28
HCC 2998 = test system: HCC 2998
HOP-92 = test system: HOP-92
HCT-15 = test system: HCT-15
MOLT-4 = test system: MOLT-4

SMILES	GI50 (HL-60)	GI50 (SW-620)	GI50 (IGROV-1)	GI50 (Malme-3M)	GI50 (OVCAR-3)	GI50 (RPMI-8226)	GI50 (SK-OV-3)	GI50 (NCI-H23)	GI50 (SK-MEL-2)	GI50 (U-251)	GI50 (SR)	GI50 (SK-MEL-28)	GI50 (HCC 2998)	GI50 (HOP-92)	GI50 (HCT-15) [µM]	GI50 (MOLT-4)
CCOC(=O)C1(Br)S(=O)(=O)OCCOS1(=O)=O	> 100 µM (inactive)	> 100 µM (inactive)	> 100 µM (inactive)	> 100 µM (inactive)	> 100 µM (inactive)	> 100 µM (inactive)	> 100 µM (inactive)	> 100 µM (inactive)	> 100 µM (inactive)	> 100 µM (inactive)	> 100 µM (inactive)	> 100 µM (inactive)	> 100 µM (inactive)	> 100 µM (inactive)	> 100	> 100 µM (inactive)
C/C(=N/NS(=O)(=O)c1c(C)cc(C)cc1C)c1cccc[n+]1[O-]	> 100 µM (inactive)	> 100 µM (inactive)	> 100 µM (inactive)		> 100 µM (inactive)	> 100 µM (inactive)	> 100 µM (inactive)	> 100 µM (inactive)		> 100 µM (inactive)	> 100 µM (inactive)	> 100 µM (inactive)	> 100 µM (inactive)	> 100 µM (inactive)	> 100	> 100 µM (inactive)
CCOC(=O)C1=C(Nc2ccc(Cl)cc2Cl)OCC1=O	> 100 µM (inactive)	> 100 µM (inactive)	> 100 µM (inactive)	> 100 µM (inactive)	> 100 µM (inactive)	> 100 µM (inactive)	> 100 µM (inactive)	> 100 µM (inactive)	> 100 µM (inactive)	> 100 µM (inactive)	> 100 µM (inactive)	> 100 µM (inactive)	> 100 µM (inactive)	> 100 µM (inactive)	> 100	> 100 µM (inactive)
CC1CCCC2(O1)OC1CC(=O)OC1C1=C2C(=O)c2ccccc2C1=O (configuration not stated)	1.39 µM (inactive)	1.67 µM (inactive)	2.65 µM (inactive)	2.45 µM (inactive)	2.72 µM (inactive)	1.22 µM (inactive)	16.4 µM (inactive)	5.13 µM (inactive)	2.33 µM (inactive)	18.2 µM (inactive)		2.14 µM (inactive)	2.37 µM (inactive)		2.8	1.58 µM (inactive)
C/C=C/C(=O)[C@@H](O)C(C)C		> 100 µM (inactive)	> 100 µM (inactive)	> 100 µM (inactive)	> 100 µM (inactive)	> 100 µM (inactive)	> 100 µM (inactive)	> 100 µM (inactive)	> 100 µM (inactive)	> 100 µM (inactive)	> 100 µM (inactive)	> 100 µM (inactive)	> 100 µM (inactive)	> 100 µM (inactive)	> 100	> 100 µM (inactive)
O=C1C(c2ccccc2)=C(c2ccccc2)C(c2ccccc2)/C1=C1\C(=O)C(c2ccccc2)=C(c2ccccc2)C1c1ccccc1 (configuration not stated)	> 100 µM (inactive)	> 100 µM (inactive)	> 100 µM (inactive)	> 100 µM (inactive)	> 100 µM (inactive)	> 100 µM (inactive)	> 100 µM (inactive)	> 100 µM (inactive)	> 100 µM (inactive)	> 100 µM (inactive)	> 100 µM (inactive)	> 100 µM (inactive)	> 100 µM (inactive)	> 100 µM (inactive)	> 100	> 100 µM (inactive)
Clc1cccc(N2CCN(CCCN3CCc4c([nH]c5ccccc45)C3c3cccnc3)CC2)c1 (configuration not stated)	2.46 µM (inactive)	13 µM (inactive)	29.6 µM (inactive)	2.54 µM (inactive)	2.67 µM (inactive)	6.15 µM (inactive)	14.6 µM (inactive)	10.7 µM (inactive)	11 µM (inactive)	10.7 µM (inactive)	2.29 µM (inactive)	3.6 µM (inactive)		8.69 µM (inactive)	8.81	3.88 µM (inactive)
CC(C)(C)C1C=C(Sc2ccccc2)C(=O)O1 (configuration not stated)	24.9 µM (inactive)	80.5 µM (inactive)	48.9 µM (inactive)	97.5 µM (inactive)	42.8 µM (inactive)	36 µM (inactive)	58.9 µM (inactive)	33.5 µM (inactive)	> 100 µM (inactive)	54 µM (inactive)		83.6 µM (inactive)	58.9 µM (inactive)	29.2 µM (inactive)	43.3	30.3 µM (inactive)
CCOC(=O)C1=C(O)C(=O)c2ccccc2C1=O	> 100 µM (inactive)	> 100 µM (inactive)	> 100 µM (inactive)	50.6 µM (inactive)	> 100 µM (inactive)	> 100 µM (inactive)	> 100 µM (inactive)	44.3 µM (inactive)	> 100 µM (inactive)	> 100 µM (inactive)	> 100 µM (inactive)	> 100 µM (inactive)	> 100 µM (inactive)	> 100 µM (inactive)	> 100	> 100 µM (inactive)
Cc1cccc(C)c1N1C(=O)C(=O)C(c2nc3ccccc3s2)/C(=N/NC(=O)c2ccccc2O)C1=O (configuration not stated)	12.5 µM (inactive)	22.4 µM (inactive)	3.26 µM (inactive)	33 µM (inactive)	18.7 µM (inactive)	12.7 µM (inactive)	50.7 µM (inactive)	7.38 µM (inactive)	11 µM (inactive)	20.6 µM (inactive)	8.45 µM (inactive)	28 µM (inactive)	24.6 µM (inactive)	15.7 µM (inactive)	14.7	8.89 µM (inactive)
O=C(O)C12CC3CC(CC(F)(C3)C1)C2	> 100 µM (inactive)	> 100 µM (inactive)	> 100 µM (inactive)	> 100 µM (inactive)	> 100 µM (inactive)	> 100 µM (inactive)	> 100 µM (inactive)	> 100 µM (inactive)	> 100 µM (inactive)	> 100 µM (inactive)		> 100 µM (inactive)	> 100 µM (inactive)	> 100 µM (inactive)		> 100 µM (inactive)
C[C@]12CCC(=O)C(O)=C1CCC2=O	> 100 µM (inactive)	> 100 µM (inactive)	> 100 µM (inactive)	> 100 µM (inactive)	> 100 µM (inactive)	> 100 µM (inactive)	> 100 µM (inactive)			> 100 µM (inactive)	> 100 µM (inactive)	> 100 µM (inactive)	> 100 µM (inactive)	> 100 µM (inactive)	> 100	> 100 µM (inactive)
COc1cccc2c1C(=O)c1c(O)c3c(c(O)c1C2=O)C[C@@](O)(C(=O)CN1CCOCC1)C[C@@H]3OC1CC(N)C(O)C(C)O1 (some centres not stated)	0.895 µM (active)	2.34 µM (inactive)	5.7 µM (inactive)	3.27 µM (inactive)	0.000912 µM (active)	1.61 µM (inactive)	7.62 µM (inactive)	5.3 µM (inactive)	9.48 µM (inactive)	2.12 µM (inactive)		12.2 µM (inactive)	5.73 µM (inactive)		12.4	
CC1=NCCc2cc3[nH]c4ccccc4c3cc21	12.1 µM (inactive)	15.7 µM (inactive)	26.9 µM (inactive)	10.7 µM (inactive)	50.2 µM (inactive)	13.2 µM (inactive)	17.8 µM (inactive)	33 µM (inactive)	11.3 µM (inactive)	22.7 µM (inactive)		10.7 µM (inactive)	24 µM (inactive)	0.897 µM (active)	21.7	11.5 µM (inactive)
Clc1ccc(-c2c(C3=NCCCN3)nnn2-c2ccccc2)cc1	17.6 µM (inactive)	20.2 µM (inactive)	> 100 µM (inactive)	> 100 µM (inactive)	> 100 µM (inactive)		> 100 µM (inactive)	> 100 µM (inactive)	> 100 µM (inactive)	> 100 µM (inactive)	56.1 µM (inactive)	> 100 µM (inactive)	> 100 µM (inactive)	34.9 µM (inactive)	43.6	> 100 µM (inactive)
COc1ccccc1NC(=O)C1=C(C)NC(C)=C(C(=O)Nc2ccccc2OC)C1c1ccccc1Cl	53.6 µM (inactive)	> 100 µM (inactive)	> 100 µM (inactive)	> 100 µM (inactive)	> 100 µM (inactive)	30.7 µM (inactive)	> 100 µM (inactive)	> 100 µM (inactive)	88.7 µM (inactive)	78.3 µM (inactive)	36.6 µM (inactive)	> 100 µM (inactive)	> 100 µM (inactive)	> 100 µM (inactive)	56.2	27.2 µM (inactive)
C=C1C(=O)[C@@]23CC[C@H]4[C@@](C)(CCC[C@@]4(C)C(=O)OC)[C@@H]2CC[C@]1(O)C3	0.301 µM (active)	0.624 µM (active)	1.63 µM (inactive)		1.84 µM (inactive)	0.286 µM (active)	19.2 µM (inactive)	1.57 µM (inactive)	1.71 µM (inactive)	3.38 µM (inactive)		1.84 µM (inactive)	2.82 µM (inactive)	1.78 µM (inactive)	1.26	0.271 µM (active)
C/N=c1/ss/c(=N\C(SC)=[N+](C)C)n1C.[O-][Cl+3]([O-])([O-])[O-]	31.3 µM (inactive)	> 100 µM (inactive)	> 100 µM (inactive)				> 100 µM (inactive)	> 100 µM (inactive)	> 100 µM (inactive)	> 100 µM (inactive)	> 100 µM (inactive)	> 100 µM (inactive)	> 100 µM (inactive)	> 100 µM (inactive)	> 100	21.1 µM (inactive)

Source: ChEMBL document CHEMBL1201862, “PubChem BioAssay data set” (2004)
